The record followed here is patent US12139508B2, “Steroid derivative regulators, method for preparing the same, and uses thereof” (JIANGSU HANSOH PHARMACEUTICAL GROUP CO., LTD., priority 2018, dated 2024).

One series deals with forced-swimming mice. The experiment in a line: In vivo pharmacodynamic test in the forced swimming model in mice. Conditions: ICR mice; for Mean (immobility, %): 100*floating time/240 s; for Immobility time during the latter four minutes compared with that of the model group: forced swimming. On the procedure: The antidepressant effect of the compound was evaluated by the forced swimming model in mice.
Male ICR mice (25-35 g) were adapted in the test environment for 3 days before the forced swimming test.
According to the test design, the mice were randomly grouped on the day before the test according to body weight, with 12 mice in each group. Before the test, the compounds of each example were administered intragastrically according to the Tmax thereof in the brain in mice pharmacokinetic test as follows: • 1) Model group (0.5% CMC-Na-1% Tween 80 solution, p.o., 10 mL/kg); • 2) Compounds of Example 2, Example 3, Example 5, Example 6, Example 9, Examples 59-63, Examples 71-73, Example 103, Example 135, Example 137, Example 145 and Example 146 (10 mg/kg, p.o., 10 mL/kg); Example 13 and Example 74 (5 mg/kg, p.o., 5 mL/kg).
When being administered, the compounds of each example were suspended in 0.5% CMC-Na+1% Tween 80 solution to the desired concentration.
0.5-1 hour after administration, ICR mice were placed in a forced swimming device (transparent glass drum (water depth 18 cm, water temperature 25-26° C.), one mouse per tank) and forced to swim for 6 minutes. The forced swimming device recorded the floating time of the ICR mice during the entire 6 minutes, and the data of the latter four minutes were used for data analysis. The mice were taken out immediately after the swimming test, wiped dry and put back in their original cages.
Note: The criterion for determining the immobility time is that the mouse stops struggling in water and floats, and there are only slight limb movements to keep the head floating on the water.
3.4 Data Analysis Floating time percentage=100*floating time/240 s.

The nature of series [1]: Pharmacokinetic assay in Balb/c mice (plasma and brain tissue). Format: in vivo. Conditions: mouse, po, 5 mg/kg p.o., male Balb/c mice; for AUC(0-t): read-out: Area under curve AUC0-t; for AUC(0-inf): read-out: Area under curve AUC0-∞; for half-life: read-out: Half-life t1/2 (converted); for MRT: read-out: Mean residence time MRT; for Tmax: read-out: Peak time tmax; for Cmax: read-out: Plasma concentration Cmax. The method, boiled down:
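Compound levels in plasma and brain were measured by LC/MS/MS with an internal standard after protein precipitation with acetonitrile. Samples came from overnight-fasted male Balb/c mice given 5 mg/kg p.o., with cardiac blood drawn at 0–24 h. Pharmacokinetic parameters were then calculated.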

Series [2] has as its system PTZ-induced epilepsy model in CD-1 mice. Description: In vivo pharmacodynamic test in the PTZ-induced epilepsy model in mice. The settings on record: dose 3 mpk p.o., PTZ 120 mg/kg s.c., 30 min observation. On the procedure: The PTZ-induced epilepsy model in CD-1 mice was established, and the antiepileptic effect of the compounds of Example 3, Example 60, Example 61 and Example 74 was evaluated using this model.
50 male CD-1 mice were purchased from Beijing Vital River Laboratory Animal Technology Co. Ltd. The test animals were adapted at the animal room in the third building of Shanghai ChemPartner Co., Ltd for 7 days before the test. The average body weight of the animals on the test day was 32.2±0.2 grams. Feeding environment: 5 animals/cage, room temperature 23±2° C., 12/12 hours of light and dark cycle, free acess to food and water.
4.2.1 Test Equipments • 1 ml sterile disposable syringe with needle (purchased from Zhejiang Kangdelai Medical Devices Co., Ltd.) • Pipette: Eppendorf Research Plus (100-1000 L) • Vortex mixer: Kylin-Bell Vortex 5 • Ultrasonic instrument: JL-360 ultrasonic cleaner • Balance: METTLER TOLEDO™ XS204 precision balance (note: METTLER TOLEDO™ is a kind of balance used in labs and industry) • Balance: METTLER TOLEDO™ XS6002S electronic balance (note: METTLER TOLEDO™ is a kind of balance used in labs and industry) • Plexiglass box: 25 cm length*15 cm width*15 cm height with one opaque side wall, custom made by Suzhou Fengshi Laboratory Animal Equipment Co., Ltd • 3-channel timer: Oregon/Model NO.WB-388. 4.2.2 Test Animal Grouping • 1) Vehicle/PTZ: 0.5% CMC-Na+1% Tween-80 (10 ml/kg, p.o.), administered 0.5 hr before the PTZ administration; PTZ ([…], s.c.), administered before the test; • 2) 3 mg/kg of the compounds of Examples/PTZ: the compounds of Example 3, Example 60, Example 61 and Example 74 (3 mg/kg, 10 ml/kg, p.o.), administered 0.5 hr before the PTZ administration; PTZ ([…], s.c.), administered before the test. 4.3 Experimental Procedures 4.3.1 Solvent Formulation 1) 0.5% CMC-Na+1% Tween-80 (Administration Volume: 10 mL/Kg):
4.4 Adaptation to the Environment
The mice were randomly grouped, marked and weighed; 10 mice per group. The test compound was administered orally at an administration volume of 10 mL/kg 30-60 minutes before the PTZ administration.
PTZ (120 mg/kg) was administrated subcutaneously before the test observation, and this time point was recorded as the observation start point; after the administration of PTZ, the animal was immediately placed in the observation box and observed for 30 minutes, and the followings were recorded: a) the incubation period of the first clonic seizure, b) the incubation period of the first generalized tonic seizure, c) the number of clonic seizures, d) the number of generalized tonic seizures, e) the time when the animal died.
All measurement data were expressed as Mean±SEM, and analysed with Prism 6.0 statistical software.

Where two headings read alike, the source gives them in different places.

As usually defined, the MRT is a mean duration of stay, worked out from the concentration-time curve. Usually Tmax stands for the time from dosing to the highest level. For the compound `C[C@@]1(O)CC[C@H]2[C@H](CC[C@@H]3[C@@H]2CC[C@@]2(C)[C@H]3[C@H](C3CC3)C[C@@H]2C(=O)Cn2ccc(C#N)n2)C1` [Example 72, 1-(2-((3R,5R,8R,9R,10S,13S,14S,15S,17S)-15-Cyclopropyl-3-hydroxy-3,13-dimethylhexadecahydro-1H-cyclopenta[a]phenanthren-17-yl)-2-oxoethyl)-1H-pyrazole-3-carbonitrile], the “Mean (immobility, %)” value in the series with forced-swimming mice (dose 10 mpk p.o.) was 35.74%. For the same compound, the “Immobility time during the latter four minutes compared with that of the model group” value in the series on forced-swimming mice was “significantly different”. Besides, in series [1] (brain tissue), the AUC(0-t) turned out to be 2050 ng·h/mL, the AUC(0-inf) came out at 2240 ng·h/mL, the half-life was 2.12 h and the MRT came to 3.17 h. Besides, in series [1] (brain tissue), the Tmax came to 0.5 h and the Cmax is 724 ng/mL. Moreover, in series [1] (plasma), the AUC(0-t) came out at 2970 ng·h/mL, the AUC(0-inf) was found to be 2970 ng·h/mL, the half-life was 2.79 h and the mean residence time (MRT) is 3.71 h. In series [1] (plasma), the Tmax worked out at 0.5 h and the Cmax worked out at 1150 ng/mL.
For the compound `C[C@@]1(O)CC[C@H]2[C@H](CC[C@@H]3[C@@H]2CC[C@@]2(C)[C@H]3[C@H](C3CC3)C[C@@H]2C(=O)Cn2nccn2)C1` [Example 73, 1-((3R,5R,8R,9R,10S,13S,14S,15S,17S)-15-Cyclopropyl-3-hydroxy-3,13-dimethylhexadecahydro-1H-cyclopenta[a]phenanthren-17-yl)-2-(2H-1,2,3-triazol-2-yl)ethan-1-one], in the series on forced-swimming mice (dose 10 mpk p.o.), the “Mean (immobility, %)” value was found to be 29.57%. In addition, the “Immobility time during the latter four minutes compared with that of the model group” value in the series with forced-swimming mice is recorded as “significantly different”. In series [1] (brain tissue), the AUC(0-t) was 1100 ng·h/mL, the AUC(0-inf) was determined as 1120 ng·h/mL, the half-life is 1.31 h and the MRT was 1.91 h. In series [1] (brain tissue), the Tmax is 0.5 h and the Cmax amounted to 636 ng/mL. In addition, in series [1] (plasma), the AUC(0-t) stood at 2430 ng·h/mL, the AUC(0-inf) was 2480 ng·h/mL, the half-life is 1.4 h and the mean residence time (MRT) was determined as 2.06 h. Moreover, in series [1] (plasma), the Tmax was found to be 0.5 h and the Cmax was 1300 ng/mL.
Take `Cc1nnn(CC(=O)[C@H]2C[C@@H](C3CC3)[C@H]3[C@@H]4CC[C@@H]5C[C@](C)(O)CC[C@@H]5[C@H]4CC[C@@]32C)n1` [Example 74, 1-((3R,5R,8R,9R,10S,13S,14S,15S,17S)-15-Cyclopropyl-3-hydroxy-3,13-dimethylhexadecahydro-TH-cyclopenta[a]phenanthren-17-yl)-2-(5-methyl-2H-tetrazol-2-yl)ethan-1-one]: in series [2], the “Incubation period of the clonic seizure, Mean ± SEM” value turned out to be 635.4 ± 149.9 s; the “Incubation period of the generalized tonic seizure, Mean” value is 1506.8 ± 149.8 s; the Mortality rate amounted to 30%; the “Number of clonic seizures, Mean” value stood at 1.8 ± 0.3. Also, in series [2], the “Number of generalized tonic seizures, Mean” value is 0.3 ± 0.2 and the “Time when the animal died, Mean” value was determined as 1618.1 ± 121.3 s. Moreover, the “Mean (immobility, %)” value in the series on forced-swimming mice (dose 5 mpk p.o.) turned out to be 38.00%. Moreover, in series [1] (brain tissue), the AUC(0-t) stood at 5850 ng·h/mL, the AUC(0-inf) turned out to be 6510 ng·h/mL, the half-life is 2.28 h and the MRT was found to be 3.82 h. Also, in series [1] (brain tissue), the Tmax was 1 h and the Cmax turned out to be 1520 ng/mL. Besides, in series [1] (plasma), the AUC(0-t) worked out at 7160 ng·h/mL, the AUC(0-inf) came to 8600 ng·h/mL, the half-life is 3.06 h and the mean residence time (MRT) was 4.59 h. Moreover, in series [1] (plasma), the Tmax is 0.5 h and the Cmax amounted to 2140 ng/mL.
For the compound `C[C@@H]1C[C@H](C(=O)Cn2nccn2)[C@@]2(C)CC[C@H]3[C@@H](CC[C@@H]4C[C@](C)(O)CC[C@@H]43)[C@H]12` [Example 61, 1-((3R,5R,8R,9R,10S,13S,14S,15R,17S)-3-Hydroxy-3,13,15-trimethylhexadecahydro-1H-cyclopenta[a]phenanthren-17-yl)-2-(2H-1,2,3-triazol-2-yl)ethan-1-one], in series [2], the “Incubation period of the clonic seizure, Mean ± SEM” value came out at 841.4 ± 179.8 s; the “Incubation period of the generalized tonic seizure, Mean” value is 1497.4 ± 124.3 s; the Mortality rate is recorded as 40%; the “Number of clonic seizures, Mean” value was 1.9 ± 0.4. Moreover, in series [2], the “Number of generalized tonic seizures, Mean” value is 0.5 ± 0.2 and the “Time when the animal died, Mean” value was found to be 1573.1 ± 117.9 s. Further, the “Mean (immobility, %)” value in the series on forced-swimming mice (dose 10 mpk p.o.) was 35.75%. The “Immobility time during the latter four minutes compared with that of the model group” value in the series on forced-swimming mice is reported as “significantly different”. In addition, in series [1] (brain tissue), the AUC(0-t) was 657 ng·h/mL, the AUC(0-inf) was 676 ng·h/mL, the half-life is 3.95 h and the MRT was 1.41 h. In series [1] (brain tissue), the Tmax is 0.5 h and the Cmax amounted to 711 ng/mL. In series [1] (plasma), the AUC(0-t) came out at 588 ng·h/mL, the AUC(0-inf) was 605 ng·h/mL, the half-life is 3.27 h and the MRT is 1.48 h. Further, in series [1] (plasma), the Tmax turned out to be 0.5 h and the Cmax was determined as 525 ng/mL.
